Several values for one entry are separate records, joined by “and”; a condition that tells them apart may be missing. Identical values can stand only once. After the bases stand the sugars from the 5' end (letter, count) and the backbone: PS all phosphorothioate, else s phosphorothioate and o phosphodiester by linkage. Methylation of C is not given here. e = 2'-O-(2-methoxyethyl) (MOE); k = constrained ethyl (cEt); d = 2'-deoxy (DNA)
Molecular target: SOD1
Conditions: ASO

Work on “ACAGGGTTTTTATTCAC (sugars e2 k2 d8 k2 e3, PS)” yielded a target mRNA inhibition (HepG2, 5 µM) of 29%.
“ACAGGTCATTGAAACAG (sugars e3 k2 d7 k2 e3, PS)” showed a target mRNA inhibition (HepG2, 3 µM) of 14%.
With “ACAGTGTTTAATGTTTA (sugars e3 k2 d7 k2 e3, PS)” the target mRNA inhibition (HepG2, 0.1875 µM) was 35%, the target mRNA inhibition (HepG2, 0.75 µM) was 71% and the target mRNA inhibition (HepG2, 3 µM) was 56% and 79%. The target mRNA inhibition (HepG2, 12 µM) was 82%.
Work on “ACAGTGTTTAATGTTTAT (sugars e5 d8 e5, linkages s1 o3 s9 o2 s2)” yielded a target mRNA inhibition (A431, 0.12 µM) of 0%, a target mRNA inhibition (A431, 0.6 µM) of 18% and a target mRNA inhibition (A431, 3 µM) of 26%. It also gave a target mRNA inhibition (A431, 15 µM) of 45%, a target mRNA inhibition (HepG2, 0.222 µM) of 19% and a target mRNA inhibition (HepG2, 0.667 µM) of 30%. The target mRNA inhibition (HepG2, 2 µM) was 46% and 50% and the target mRNA inhibition (HepG2, 6 µM) was 70%.
Work on “ACATGCCTCTCTTCATC (sugars e3 k2 d7 k2 e3, PS)” yielded a target mRNA inhibition (HepG2, 3 µM) of 0%.
“ACCTGCACTGGTACAGCCTG (sugars e5 d10 e5, PS)” was tested, and the target mRNA inhibition (HepG2, 5 µM) was 46% and 48%.
For “ACGACGCAAACCAGCACCCC (sugars e5 d10 e5, PS)”, the target mRNA inhibition (HepG2, 4 µM) was 30%.
In the case of “ACTACATCCAAGGGAAT (sugars e2 k2 d9 k2 e2, PS)”, the target mRNA inhibition (HepG2, 4 µM) was 48%.
“ACTACATCCAAGGGAAT (sugars e3 k2 d7 k2 e3, PS)” gave a target mRNA inhibition (HepG2, 3 µM) of 7%.
For “ACTTTTAAGATTACAGTGTT (sugars e5 d10 e5, PS)”, the target mRNA inhibition (HepG2, 5 µM) was 24%.
Sequence “AGACTACATCCAAGGGA (sugars e2 k2 d8 k2 e3, PS)” has a target mRNA inhibition (HepG2, 4 µM) of 53%.
Sequence “AGACTACATCCAAGGGA (sugars e2 k2 d9 k2 e2, PS)” has a target mRNA inhibition (HepG2, 4 µM) of 55%.
“AGCACCCCGTCTCCGCGACT (sugars e5 d10 e5, PS)” was tested, and the target mRNA inhibition (HepG2, 4 µM) was 24%.
“AGCAGGATAACAGATGAGTT (sugars e5 d10 e5, PS)” gave a target mRNA inhibition (HepG2, 4 µM) of 70% and a target mRNA inhibition (HepG2, 12 µM) of 89%.
For “AGCCTCATAATAAGTGC (sugars e2 k2 d8 k2 e3, PS)”, the target mRNA inhibition (HepG2, 5 µM) was 16%.
For “AGCCTCATAATAAGTGC (sugars e2 k2 d9 k2 e2, PS)”, the target mRNA inhibition (HepG2, 5 µM) was 11%.
In the case of “AGCCTCATAATAAGTGCCAT (sugars e5 d10 e5, PS)”, the target mRNA inhibition (HepG2, 5 µM) was 6%.
For “AGGATAACAGATGAGTT (sugars e2 k2 d8 k2 e3, PS)”, the target mRNA inhibition (HepG2, 0.1875 µM) was 30%, the target mRNA inhibition (HepG2, 0.75 µM) was 71% and the target mRNA inhibition (HepG2, 3 µM) was 87%. The target mRNA inhibition (HepG2, 4 µM) was 84% and the target mRNA inhibition (HepG2, 12 µM) was 95%.
In the case of “AGGCTTGAATGACAAAGAAA (sugars e5 d10 e5, PS)”, the target mRNA inhibition (HepG2, 5 µM) was 27%.
“AGGGTTTTTATTCACAG (sugars e3 k2 d7 k2 e3, PS)” was tested, and the target mRNA inhibition (HepG2, 3 µM) was 24%.
Sequence “AGGTCATTGAAACAGAC (sugars e2 k2 d9 k2 e2, PS)” has a target mRNA inhibition (HepG2, 5 µM) of 44%.
“AGTGAGATCACAGAATCTTC (sugars e5 d10 e5, PS)” showed a target mRNA inhibition (HepG2, 5 µM) of 30%.
“AGTGATCATAAATCAGT (sugars e2 k2 d9 k2 e2, PS)” was tested, and the target mRNA inhibition (HepG2, 5 µM) was 32%.
In the case of “AGTGTTTAATGTTTAT (sugars ekddddddddekekee, linkages s1 o1 s8 o3 s2)”, the target mRNA inhibition (A431, 0.12 µM) was 10%, the target mRNA inhibition (A431, 0.6 µM) was 22% and the target mRNA inhibition (A431, 3 µM) was 48%. For the same sequence, the target mRNA inhibition (A431, 15 µM) was 77%.
Sequence “AGTGTTTAATGTTTATC (sugars e2 k2 d8 e5, linkages s1 o2 s9 o2 s2)” has a target mRNA inhibition (A431, 0.062 µM) of 16%, a target mRNA inhibition (A431, 0.185 µM) of 43% and a target mRNA inhibition (A431, 0.556 µM) of 65%. The target mRNA inhibition (A431, 1.667 µM) was 68%, the target mRNA inhibition (A431, 5 µM) was 79% and the target mRNA inhibition (A431, 15 µM) was 83%. The target mRNA inhibition (SH-SY5Y, 0.062 µM) was 33%, the target mRNA inhibition (SH-SY5Y, 0.185 µM) was 10% and the target mRNA inhibition (SH-SY5Y, 0.556 µM) was 43%. It also gave a target mRNA inhibition (SH-SY5Y, 1.667 µM) of 61%, a target mRNA inhibition (SH-SY5Y, 5 µM) of 81% and a target mRNA inhibition (SH-SY5Y, 15 µM) of 77%.
For “AGTGTTTAATGTTTATC (sugars e2 k2 d8 k2 e3, linkages s1 o2 s9 o2 s2)”, the target mRNA inhibition (A431, 0.12 µM) was 31%, the target mRNA inhibition (A431, 0.6 µM) was 68% and the target mRNA inhibition (A431, 3 µM) was 83%. The target mRNA inhibition (A431, 15 µM) was 86%, the target mRNA inhibition (HepG2, 0.222 µM) was 68% and the target mRNA inhibition (HepG2, 0.667 µM) was 76%. It also gave a target mRNA inhibition (HepG2, 2 µM) of 86% and a target mRNA inhibition (HepG2, 6 µM) of 84%.
For “AGTGTTTAATGTTTATC (sugars e3 k2 d7 k2 e3, PS)”, the target mRNA inhibition (HepG2, 0.1875 µM) was 52%, the target mRNA inhibition (HepG2, 0.75 µM) was 78% and the target mRNA inhibition (HepG2, 3 µM) was 67% and 86%. The target mRNA inhibition (HepG2, 12 µM) was 85%.
For “AGTTTAATACCCATCTG (sugars e3 k2 d7 k2 e3, PS)”, the target mRNA inhibition (HepG2, 3 µM) was 10%.
“ATAACAGATGAGTTAAG (sugars e2 k2 d8 k2 e3, PS)” showed a target mRNA inhibition (HepG2, 4 µM) of 27%.
Sequence “ATAACAGATGAGTTAAG (sugars e2 k2 d9 k2 e2, PS)” has a target mRNA inhibition (HepG2, 4 µM) of 42%.
Sequence “ATACAGGTCATTGAAAC (sugars e2 k2 d9 k2 e2, PS)” has a target mRNA inhibition (HepG2, 5 µM) of 22%.
“ATACATTTCTACAGCT (sugars ekddddddddekekee, linkages s1 o1 s8 o3 s2)” gave a target mRNA inhibition (A431, 0.12 µM) of 0%, a target mRNA inhibition (A431, 0.6 µM) of 9% and a target mRNA inhibition (A431, 3 µM) of 0%. For the same sequence, the target mRNA inhibition (A431, 15 µM) was 25%, the target mRNA inhibition (HepG2, 0.222 µM) was 43% and the target mRNA inhibition (HepG2, 0.667 µM) was 58%. The target mRNA inhibition (HepG2, 2 µM) was 79% and the target mRNA inhibition (HepG2, 6 µM) was 91%.

Source: the OligoGym collection
